Holding throughout (type): in vivo
Assay [1] has as its system Experimental Autoimmune Encephalomyelitis (EAE). Kind of assay: Experimental Autoimmune Encephalomyelitis (EAE), progressive mouse model of MOG-driven inflammation. The procedure:
(§1) We confirmed the activity and dose-dependence of traditional GA regimens using daily GA injections (i.p.) at 0.2 or 2.0 mg/day beginning at disease onset in EAE (arrows; N=10/group). As discussed above, EAE is a progressive mouse model of MOG-driven inflammation that results in severe paralysis over several weeks; higher clinical scores indicate more severe disease (FIG. 3, panel A). Next we formulated GA-MNs (with sucrose stabilizer) such that a single MN patch contained 0.2 mg—confirmed by dissolution and fluorimetry—to match the ineffective injected GA dose in FIG. 3 panel A. The actual amount of GA delivered from MNs is likely less than the total GA loading due to accumulation on the backing. Mice were then treated at the ear on days 5, 10, 15, and 20 with GA-MNs or control MNs lacking GA (“Sucrose MN”). […] To analyze this approach in another inflammation model driven by a different myelin peptide—PLP, SJL/J mice were induced with relapsing-remitting EAE (RR-EAE) then treated on days 6, 9, and 12 (N=15/group) using equivalent doses 0.2 mg/treatment (tx) group of GA by MN or soluble i.p. injection.

Assay [2] deals with relapsing-remitting EAE (RR-EAE). Kind of assay: Relapsing-remitting EAE (RR-EAE) driven by PLP in SJL/J mice. As to conditions: 0.2 mg/treatment on days 6, 9, 12, by MN or soluble i.p. injection; for RR-EAE mean score: measured at the last treatment day. The procedure: as §1
The subject of assay [3] is lymphocytes, TREG, CD45+CD4+ T cells. Kind of assay: Flow cytometry of cervical LNs, spleen and spinal cord in RR-EAE mice. As to conditions: Day 10 and Day 12, relative to untreated mice with RR-EAE. The procedure: To analyze this, we analyzed whether GA-MN could increase TREG, and, that because of the decreased clinical scores in FIG. 3, these effects might be evident in cervical LNs. Using analogous regimens to FIG. 3 panel D (RR-EAE), mice were euthanized at Day 10 and Day 12, then cervical LNs and spleen were assessed by flow cytometry. Relative to untreated mice with RR-EAE, GA-MN increased both the number of lymphocytes (FIG. 4 panel A) and the number of TREG (FIG. 4 panel B); these effects were not observed in mice treated with soluble GA. […] At day 12, we assessed the number of lymphocytes and activated CD4^+ T cells, as indicated by staining for CD45^+/CD4^+ cells. Though the group sizes (N=5) were insufficient for statistical significance, we observed a trend that GA-MN decreased the number of lymphocytes the spinal cord (FIG. 5 panel A), as well as the number of infiltrating CD45^+CD4^+ cells (FIG. 5 panels B and C). The data in these Examples indicate GA-MNs deliver GA through the skin of mice at doses that provide efficacy in EAE and RR-EAE.
Background: A flow cytometer gives signals particle by particle.

For the substance glatiramer acetate [GA], the “EAE clinical score, effect of injected GA” value in assay [1] (daily GA injections i.p. 0.2 mg/day beginning at disease onset) was “ineffective”. Further, in assay [1] (daily GA injections i.p. at 0.2 or 2.0 mg/day beginning at disease onset), the “EAE clinical score, dose dependence of daily GA dosing” value is recorded as “dose-dependent effects”. In assay [2] (listed as injectable GA), the RR-EAE disease progression result is on record as “does not” and the RR-EAE mean score entry is given as “does not”. Further, in assay [2] (listed as soluble GA), the RR-EAE disease progression result is recorded as “no effect” and the RR-EAE mean score result is “no effect”. Further, in assay [3], the “Number of TREG in cervical LNs” value is listed as “not observed” and the “Number of lymphocytes in cervical LNs” value is given as “not observed”.

(Values after US20210000907A1, “MICRONEEDLE-MEDIATED DELIVERY OF TOLEROGENIC IMMUNOTHERAPEUTICS” (University of Maryland, College Park, priority 2017, published 2021).)
